≈ marks a conversion by molar mass, not a printed value. Calls of active or inactive are those of the source. No cut-off for these calls is given here.
Legend:
Type in all cases: functional
[1] = Antifungal activity against Monilia albican ATCC 10231 after 24 to 72 hrs by NCCLS method
[2] = test system: Staphylococcus aureus; experiment: Antibacterial activity against Staphylococcus aureus ATCC 6538 after 24 hrs by NCCLS method
[3] = test system: Escherichia coli; experiment: Antibacterial activity against Escherichia coli ATCC 8099 after 24 hrs by NCCLS method

Compound	MFC [1] [µg/mL]	MIC [1] [µg/mL]	MBC ([2]; ATCC 6538, 24 h) [µg/mL]	MIC ([2]; ATCC 6538, 24 h) [µg/mL]	MBC ([3]; ATCC 8099, 24 h) [µg/mL]	MIC ([3]; ATCC 8099, 24 h) [µg/mL]	MBC [2] [µg/mL]	MIC [2] [µg/mL]	MBC [3]	MIC [3]
CC(=O)OC[C@H]1O[C@@H](Sc2nnc(-c3ccccc3)n2/N=C/c2cc(Cl)ccc2O)[C@H](OC(C)=O)[C@@H](OC(C)=O)[C@@H]1OC(C)=O	32 (≈ 48.4 µM)	16 (≈ 24.2 µM)	128 (≈ 194 µM)	64 (≈ 96.8 µM)	128 (≈ 194 µM)	128 (≈ 194 µM)				
GENTAMICIN	4	4					2	2	4 µg/mL	2 µg/mL
CC(=O)OC[C@H]1O[C@@H](Sc2nnc(-c3ccccc3)n2/N=C/c2ccccc2O)[C@H](OC(C)=O)[C@@H](OC(C)=O)[C@@H]1OC(C)=O	64 (≈ 102 µM)	32 (≈ 51.1 µM)	128 (≈ 204 µM)	64 (≈ 102 µM)					inactive	inactive
CC(=O)OC[C@H]1O[C@@H](Sc2nnc(-c3ccccc3)n2/N=C/c2ccccc2Cl)[C@H](OC(C)=O)[C@@H](OC(C)=O)[C@@H]1OC(C)=O	64 (≈ 99.2 µM)	64 (≈ 99.2 µM)	128 (≈ 198 µM)	128 (≈ 198 µM)	128 (≈ 198 µM)	128 (≈ 198 µM)				
CC(=O)OC[C@H]1O[C@@H](Sc2nnc(-c3ccccc3O)n2/N=C/c2cc(Br)ccc2O)[C@H](OC(C)=O)[C@@H](OC(C)=O)[C@@H]1OC(C)=O	16 (≈ 22.2 µM)	16 (≈ 22.2 µM)	128 (≈ 177 µM)	64 (≈ 88.7 µM)	128 (≈ 177 µM)	128 (≈ 177 µM)				
OC(Cn1cncn1)(Cn1cncn1)c1ccc(F)cc1F [FLUCONAZOLE]	4 (≈ 13.1 µM)	2 (≈ 6.53 µM)	32 (≈ 104 µM)	16 (≈ 52.2 µM)	128 (≈ 418 µM)	128 (≈ 418 µM)				
CC(=O)OC[C@H]1O[C@@H](Sc2nnc(-c3ccccc3)n2/N=C/c2cc(Br)ccc2O)[C@H](OC(C)=O)[C@@H](OC(C)=O)[C@@H]1OC(C)=O	16 (≈ 22.7 µM)	16 (≈ 22.7 µM)	32 (≈ 45.4 µM)	32 (≈ 45.4 µM)	128 (≈ 181 µM)	128 (≈ 181 µM)				
CC(=O)OC[C@H]1O[C@@H](Sc2nnc(-c3ccccc3O)n2/N=C/c2cc(Br)cc(Br)c2O)[C@H](OC(C)=O)[C@@H](OC(C)=O)[C@@H]1OC(C)=O	32 (≈ 40 µM)	16 (≈ 20 µM)	32 (≈ 40 µM)	32 (≈ 40 µM)	16 (≈ 20 µM)	16 (≈ 20 µM)				
CC(=O)OC[C@H]1O[C@@H](Sc2nnc(-c3ccccc3O)n2/N=C/c2ccccc2Cl)[C@H](OC(C)=O)[C@@H](OC(C)=O)[C@@H]1OC(C)=O	64 (≈ 96.8 µM)	32 (≈ 48.4 µM)	128 (≈ 194 µM)	128 (≈ 194 µM)	128 (≈ 194 µM)	128 (≈ 194 µM)				
CC(=O)OC[C@H]1O[C@@H](Sc2nnc(-c3ccccc3O)n2/N=C/c2ccccc2)[C@H](OC(C)=O)[C@@H](OC(C)=O)[C@@H]1OC(C)=O	32 (≈ 51.1 µM)	32 (≈ 51.1 µM)	256 (≈ 409 µM)	128 (≈ 204 µM)	256 (≈ 409 µM)	128 (≈ 204 µM)				
CC(=O)OC[C@H]1O[C@@H](Sc2nnc(-c3ccccc3O)n2/N=C/c2cc(Cl)ccc2O)[C@H](OC(C)=O)[C@@H](OC(C)=O)[C@@H]1OC(C)=O	32 (≈ 47.3 µM)	16 (≈ 23.6 µM)	128 (≈ 189 µM)	128 (≈ 189 µM)	256 (≈ 378 µM)	128 (≈ 189 µM)				
CC(=O)OC[C@H]1O[C@@H](Sc2nnc(-c3ccccc3O)n2/N=C/c2ccccc2O)[C@H](OC(C)=O)[C@@H](OC(C)=O)[C@@H]1OC(C)=O	64 (≈ 99.6 µM)	64 (≈ 99.6 µM)	128 (≈ 199 µM)	128 (≈ 199 µM)	64 (≈ 99.6 µM)	64 (≈ 99.6 µM)				
CC(=O)OC[C@H]1O[C@@H](Sc2nnc(-c3ccccc3)n2/N=C/c2ccccc2)[C@H](OC(C)=O)[C@@H](OC(C)=O)[C@@H]1OC(C)=O	64 (≈ 105 µM)	32 (≈ 52.4 µM)	64 (≈ 105 µM)	64 (≈ 105 µM)	128 (≈ 210 µM)	128 (≈ 210 µM)				
Oc1cc(Cl)ccc1Oc1ccc(Cl)cc1Cl [TRICLOSAN]	64 (≈ 221 µM)	32 (≈ 111 µM)	4 (≈ 13.8 µM)	4 (≈ 13.8 µM)	4 (≈ 13.8 µM)	2 (≈ 6.91 µM)				
CC(=O)OC[C@H]1O[C@@H](Sc2nnc(-c3ccccc3)n2/N=C/c2cc(Br)cc(Br)c2O)[C@H](OC(C)=O)[C@@H](OC(C)=O)[C@@H]1OC(C)=O	16 (≈ 20.4 µM)	16 (≈ 20.4 µM)	32 (≈ 40.8 µM)	16 (≈ 20.4 µM)	16 (≈ 20.4 µM)	16 (≈ 20.4 µM)				

Reference: ChEMBL document CHEMBL2346514, “Efficient synthesis and antimicrobial activity of some novel S-β-d-glucosides of 5-aryl-1,2,4-triazole-3-thiones derivatives” (2013)
